Results on 1 molecule are retold here after patent publication US4954509A, “Isoquinoline derivatives and their use as analgesics” (Dr. Lo. Zambeletti S.p.A., priority 1988, dated 1990).

The test system of assay [1] is mice. Briefly: p-phenylquinone-induced abdominal writhing test in mice. As to conditions: Mus musculus, sc, 20 min; subcutaneous; calculated as the free base; 20 min pretreatment, p-phenylquinone 2 mg/Kg i.p. The format is in vivo, mouse (male Charles River, Swiss Strain). The procedure:
(A) P-phenylquinone-induced abdominal writhing test in mice
The methodology employed is based on that described by Sigmund et al, Proc. Soc. Exptl. Biol. 95, 729/1957, modified by Milne and Twomey, Agents and Actions, 10, 31/1980.
Male Charles River mice (Swiss Strain), 25-36g body weight, were used. Animals were allowed food and water ad libitum and were randomized into groups of 10 prior to experimentation. Test compounds were dissolved in either distilled water or distilled water plus 0.1 M AMS, and administered by the subcutaneous route in a final volume of 10 ml/Kg. Control animals received 10 ml/Kg of the appropriate vehicle alone. Following a pretreatment period of 20 min., mice were injected intraperitoneally with p-phenylquinone, 2 mg/Kg at 37° C. in a final volume of […]. […] During this period the number of abdominal writhing responses per animal were recorded where writhing consists of an intermittent contraction of the abdomen associated with hind leg extension.
The degree of antinociceptive protection afforded by the test compound was determined as the mean number of writhing responses observed in the treated group (T) expressed as a percentage of the mean number of writhing responses in the control group (C) according to the following formula:
[1-(T/C]×100%=% graded protection

For assay [2], the system named is mice. As to the kind of experiment: tail-flick test in mice. The note with it: Mus musculus, sc, 0.5 h, subcutaneous; calculated as the free base; 30 min pretreatment. It counts as in vivo, mouse (male Charles River, Swiss Strain). As to the method:
(B) Tail-flick test in mice
The methodology employed is based on that described by D'Amour and Smith, J. Pharmacol. Exp. Ther. 72, 74/1941.
Male Charles River mice (Swiss Strain), 22-34g body weight were used. Animals were allowed food and water ad libitum and were randomized into groups of 10 prior to experimentation.
Test compounds were dissolved in either distilled water or distilled water plus 0.1 M AMS and administered by the subcutaneous route in a final volume of 10 ml/Kg. Control animals received 10 ml/kg of the appropriate vehicle alone. Following a pretreatment period of 30 min., the mice were again placed under the heat source and the reaction tine re-determined.
Percentage quantal protection was determined as the number of mice in which the reaction time was doubled compared to pretreatment values, expressed as a percentage of the total number of mice in the group.

In assay [3] the target is T1, MU opiate receptor (Cavia porcellus, UniProt A0ACM8Q262).
T1 construct: 3H-DAGO displacement
T1 sequence (A0ACM8Q262 1-400): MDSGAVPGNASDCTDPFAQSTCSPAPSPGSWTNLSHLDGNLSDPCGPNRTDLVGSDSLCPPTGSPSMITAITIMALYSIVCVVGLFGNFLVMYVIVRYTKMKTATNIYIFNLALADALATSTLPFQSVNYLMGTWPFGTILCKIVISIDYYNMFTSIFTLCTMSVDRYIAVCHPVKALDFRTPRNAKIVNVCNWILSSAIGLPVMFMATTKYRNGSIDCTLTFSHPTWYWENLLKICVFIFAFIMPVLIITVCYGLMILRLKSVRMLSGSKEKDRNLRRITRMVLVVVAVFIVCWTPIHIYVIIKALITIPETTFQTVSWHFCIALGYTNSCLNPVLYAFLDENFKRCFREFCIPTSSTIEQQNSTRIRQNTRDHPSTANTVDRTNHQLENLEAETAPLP
As to the kind of experiment: opiate receptors binding, MU (3H-DAGO, guinea pig brain homogenate). As to conditions: fresh guinea pig brain homogenate, 25° C., 40 min, read-out: OPIATE RECEPTORS BINDING MU Ki. The procedure:
Radio receptor binding to μ and K sites is performed on fresh guinea pig brain homogenate prepared according to Kosterlitz.
(§1) Whole brain without cerebellum is homogenized in 50 mM, Tris-buffer (pH 7.4 at 0° C.) and centrifuged at 49,000×g×10 min.
The pellet is then resuspended in the same buffer, incubated at 37° C. for 45 min. and centrifuged again. 1.9ml of the final homogenate (1:100 in Tris-pH 7.4, 0° C.) is used for the binding assay.
The filters are then dryed, solubilized in Filtercount and the radioactivity monitored. Non specific binding
is determined in the presence of 10-6M Naloxone.

The target of assay [4] is T2, KAPPA opiate receptor (Cavia porcellus, UniProt P41144).
T2 construct: fresh guinea pig brain homogenate; from tissue; host or cells: guinea pig whole brain without cerebellum, fresh homogenate
T2 sequence (P41144 whole entry): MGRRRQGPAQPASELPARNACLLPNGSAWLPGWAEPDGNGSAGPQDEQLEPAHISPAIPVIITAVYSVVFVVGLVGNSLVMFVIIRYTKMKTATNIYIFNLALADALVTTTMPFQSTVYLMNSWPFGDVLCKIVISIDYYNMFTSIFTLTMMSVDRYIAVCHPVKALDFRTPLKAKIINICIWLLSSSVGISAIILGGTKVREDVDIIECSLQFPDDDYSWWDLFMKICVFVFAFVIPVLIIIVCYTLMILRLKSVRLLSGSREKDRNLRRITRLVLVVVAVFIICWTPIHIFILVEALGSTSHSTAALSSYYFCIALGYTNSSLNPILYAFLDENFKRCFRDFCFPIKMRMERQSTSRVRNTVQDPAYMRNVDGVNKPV
Briefly: opiate receptors binding, KAPPA (3H-Ethyl Ketocyclazocine, guinea pig brain homogenate). The procedure: Radio receptor binding to μ and K sites is performed on fresh guinea pig brain homogenate prepared according to Kosterlitz. (1981).
as §1
The pellet is then resuspended in the same buffer, incubated at 37° C. for 45 min. and centrifuged again. 1.9ml of the final homogenate (1:100 in Tris-pH 7.4, 0° C.) is used for the binding assay. Binding to […] sites (Magnan J., 1982) 1 3H [D-Ala2, MePhe4, Gly-o15]Enkephalin (3H-DAGO), an
is determined in the presence of 10-6M Naloxone. 1 Binding to K sites (Magnan J., 1982)
The binding to the K-sites is performed using 3H-Ethyl Ketocyclazocine, a non-selective benzomorphan compound which binds to μ, δ and K-sites, in the presence of 100nM of unlabelled DAGO and 100nM of the enkephalin analogue [DAla^2 -DLeu^5 ]Enkephalin (DADLE), to prevent μ and δ binding respectively.
Final homogenate with solutions of the cold ligand and of the labelled ligand is incubated for 40 min. at 25° C., filtered through Whatman GF/C glass filter discs and washed.
The radioactivity bound to the filters is counted by liquid scintillation spectrophotometry.
The non-specific binding is determined in the presence of 500nM of the benzomorphan non-selective compound Mr 2266.
The equilibrium dissociation constant (KD) and the maximum binding capacity (Bmax) are determined from the analysis of saturation curves, while the inhibition constant (Ki) is determined from the analysis of competition experiments (Hill 1910; Scatchard 1949; Cheng and Prusoff 1973; Gillan et al. 1980).

As a reminder, the ED50 is the dose that gives a 50% effect, or the effect in half of the subjects. Broadly, the Ki is a dissociation constant, usually derived from enzyme kinetics or from competition with a known ligand. Take `COc1cccc2c1CCN(C(=O)Cc1ccc(Cl)c(Cl)c1)C2CN1CCCC1` (stereo not shown) [Example 6, 1-(pyrrolidin-1-Yl)methyl-2-(3,4-dichlorophenyl)acetyl-5-methoxy-1,2,3,4-tetrahydroisoquinoline]: the ED50 in assay [1] was 0.047 mg/kg; in assay [2], 0.054 mg/kg. Moreover, the Ki in assay [3] was found to be 277 nM; in assay [4], 4.01 nM.
